This is an account of results in patent publication US20190234926A1, “METHOD OF PREDICTING FLAVOR PERFORMANCE” (McCormick & Company, Incorporated, priority 2016, published 2019).

The series is described as follows: Polarity measured as dielectric constant with a dielectric constant meter. In kind it is physicochemical. The source says:
Polar solvents such as water heat up in a microwave much faster than non-polar oils. Flavors heat up somewhere in between depending on their polarity. Dipolar moment of molecules of various liquids is different and can be a measure of polarity of liquids. The dipolar moment is responsible for interaction of molecules in a liquid with the electromagnetic field of a microwave oven. One measure of dipolar moment is dielectric constant. Thus, dielectric constant is a sound measure of flavor polarity and can predict flavor properties and flavor-matrix interaction whether during processing or in final target applications. An example of one commercially available dielectric constant meter useful with the method described herein is a model BI-870 from Brookhaven Instruments. It can measure dielectric constant not only at 20° C. but in a broad temperature range.
In support of development of flavors, encapsulation technologies, and applications, dielectric constant of key solvents used in flavor formulation (Table 1) were measured and a variety of target flavors (Table 2). […] Dielectric constants of binary blends of components fall in the range between the dielectric constants of individual components.

As for `CCO` [Ethanol (95%), Ethanol], the Dielectric constant (solvents, at about 20° C.) stood at 28.3.

Take `OCC(O)CO` [Glycerin]: where the note is “solvents, at about 20° C.”, the Dielectric constant was 46.1.

For `OCc1ccccc1` [Benzyl alcohol], under “solvents, at about 20° C.”, the Dielectric constant was determined as 13.8.

Take `CC(C)O` [Isopropanol]: the Dielectric constant (solvents, at about 20° C.) came out at 20.8.

Compound `CC(O)CO` (stereo not drawn) [Propylene glycol] registered a Dielectric constant (solvents, at about 20° C.) of 28.7.

`CC(=O)OCC(COC(C)=O)OC(C)=O` [Triacetin] had a Dielectric constant (solvents, at about 20° C.) of 7.0.

In the case of `CC(=O)C(C)=O` [Diacetyl], the Dielectric constant (flavor components and compounded flavors incl. listed solvent, at about 20° C.) is 4.4.

For `O` [Water deionized, Water], the Dielectric constant result reads like this: (at 20° C., general statement) “about 80”; (solvents, at about 20° C.) 79.2.
